Target: T1, GalNAc-T4 (Homo sapiens, UniProt Q8N4A0)
T1 construct: amino acid residues 36–578 of the human GalNAc-T4; histidine tag (C); made in house; host or cells: Pichia pastoris SMD1168 (pPICZαA, secreted)
Test: STD-NMR binding / epitope mapping
Conditions: normalized to the highest STD response; 298 K, pH 7.4, UDP, MnCl2; in words
Procedure: All NMR experiments were recorded on a Bruker Avance 600 MHz spectrometer equipped with a triple channel cryoprobe head. The^1H NMR resonances of the peptides 1–3 were completely assigned through standard 2D-TOCSY (30 and 80 ms mixing time) and 2D-NOESY experiments (400 ms mixing time). Solution conditions used for the NMR characterization studies were 1–3 mM (glyco)peptide, 25 mM perdeuterated tris-d11 in 90:10 H2O/D2O, 7.5 mM NaCl, and 1 mM DTT, uncorrected pH 7.4. The assignments were accomplished either at 278 or 298 K. The resonance of 2,2,3,3-tetradeutero-3-trimethylsilylpropionic acid (TSP) was used as a chemical shift reference in the^1H NMR experiments (δ TSP = 0 ppm). Peak lists for the 2D-TOCSY and 2D-NOESY spectra were generated by interactive peak picking using the computer aided resonance assignment (CARA) software.
Samples for STD experiments were prepared in perdeuterated 25 mM TRIS-d11 in deuterated water, 7.5 mM NaCl, and 1 mM DTT, uncorrected pH 7.4. STD-NMR experiments were performed at 298 K in the presence of 75 μM UDP, 75 μM MnCl2 with ~880 μM peptide (or GalNAc-O-Me) and 13.5 μM GalNAc-T4 giving a molar ratio of 65:1 peptide:GalNAc-T4.
The STD-NMR spectra were acquired with 1920 transients in a matrix with 64 k data points in t2 in a spectral window of 12335.53 Hz centered at 2819.65 Hz. An excitation sculpting module with gradients was employed to suppress the water proton signals. Selective saturation of the protein resonances (on resonance spectrum) was performed by irradiating at −1 ppm using a series of Eburp2.1000-shaped 90° pulses (50 ms, 1 ms delay between pulses) for a total saturation time of 2.0 s. For the reference spectrum (off resonance), the samples were irradiated at 100 ppm. Proper control experiments were performed with the ligands in the presence and absence of the protein in order to optimize the frequency for protein saturation (−1 ppm) and to ensure that the ligand signals were not affected. […] This nonspecific saturation was taken into account, by subtraction, when quantifying the STD-NMR data in the presence of the transferase. As well, a blank STD experiment with only the protein was also recorded. The substraction of this protein STD spectrum allowed eliminating the signal background of the protein. In all cases, to accomplish the STD-NMR-derived epitope mapping of each ligand, the STD-NMR total intensities were normalized with respect to the highest STD-NMR response. For Fig. 2b and Supplementary Fig. 1, the STD response of each amino acid corresponds to the average of STD percentages of all amino acid proton resonances that were measured with sufficient accuracy. The signal of the anomeric proton of as well as, the Hα protons of the Ala amino acids of glycopeptides could not be analyzed in the STD-NMR spectra due to their close proximity to the HDO resonance. Proton resonances, from Gly and Pro, appear in the same chemical shift region of the spectrum and were not discriminated.

T1 sequence (Q8N4A0 36-578): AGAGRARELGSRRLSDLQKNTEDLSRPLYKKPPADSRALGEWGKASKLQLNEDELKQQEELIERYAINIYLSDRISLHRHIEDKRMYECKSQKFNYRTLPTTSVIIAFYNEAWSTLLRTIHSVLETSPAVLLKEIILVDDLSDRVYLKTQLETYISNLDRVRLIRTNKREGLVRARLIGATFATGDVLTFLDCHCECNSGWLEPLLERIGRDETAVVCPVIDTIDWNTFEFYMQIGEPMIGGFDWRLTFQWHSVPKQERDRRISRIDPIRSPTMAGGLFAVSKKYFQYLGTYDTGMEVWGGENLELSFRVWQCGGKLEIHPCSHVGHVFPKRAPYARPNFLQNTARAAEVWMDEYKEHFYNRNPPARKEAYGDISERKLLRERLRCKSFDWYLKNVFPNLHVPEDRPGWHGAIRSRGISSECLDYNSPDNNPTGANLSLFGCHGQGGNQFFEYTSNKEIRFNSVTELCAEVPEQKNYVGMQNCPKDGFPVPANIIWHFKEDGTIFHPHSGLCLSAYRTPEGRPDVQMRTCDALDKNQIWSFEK

In the case of CO[C@H]1O[C@H](CO)[C@H](O)[C@H](O)[C@H]1NC(C)=O [α-methyl-GalNAc, reference compound], the “STD-NMR-derived epitope mapping of GalNAc moiety” value is reported as “the highest STD response corresponded to the H2 proton of the GalNAc moiety followed by a modest STD of protons H4, H3, and N-acetyl group”.

Source: PMC5716993, “The interdomain flexible linker of the polypeptide GalNAc transferases dictates their long-range glycosylation preferences” (Nature Communications, 2017)
